In USRE46558E1, “Compositions and methods to treat diseases characterized by cellular proliferation and angiogenesis” (Paloma Pharmaceuticals, Inc., priority 2005, dated 2017):
Read-outs that look alike come from different tables or passages of the source.

What was measured:
[1] = test system: human umbilical vein endothelial cells, HUVECs (proliferating); assay: HUVEC proliferation assay (proliferating, b-FGF or VEGF stimulated); type: cell-based; parameters: inhibition: dose or concentration left out as unconfirmed; settings: for inhibition: Homo sapiens, proliferating HUVEC, 48 h, read-out: HUVECp % inhibition
Text: (§1) Anti-tumor (anti-proliferative for cancer cells), anti-angiogenic activity (anti-proliferative for endothelial cells) measured in vitro as inhibition of proliferation binding to estrogen receptor alpha and beta HUVEC Proliferation. Inhibition of the proliferation of human umbilical vein endothelial cells, HUVECs, is shown as one measure of anti-angiogenic activity. HUVECS and the required media complements were purchased from Cascade Biologics (Portland, Oreg.) and the growth and maintenance of the cultures was as described by the manufacturer. The proliferation assay was carried out by seeding the HUVECs in 96-well plates at a density of 1,000 cells/well in complete medium. Following a 24 h plating period, the cells were starved for 24 h in 0.5% serum before being treated with SG (“Signal Gene” now “Palomid”) angiogenic inhibitors in the presence of 10 ng/ml b-FGF or dosing ranging presence of either b-FGF or VEGF in complete medium. After 48 h, cell number was determined using a calorimetric method as described by the supplier (Promega Corp., Madison, Wis.). The results were expressed as the percentage of the maximal b-FGF or VEGF response in the absence of angiogenic inhibitors. Non-proliferating endothelial cells were assayed by growing HUVECs to quiescence in 96-well plates and treating with angiogenic inhibitors for 48 h. Initially, 5,000 cells/well were seeded and confluence was achieved the next day. The plates were incubated another 24 h to ensure growth arrest before treatment with angiogenic inhibitors. Cell number was determined as outlined above.

[2] = test system: HUVEC quiescent; assay: Non-proliferating (quiescent) HUVEC assay; type: cell-based; parameters: dose or concentration left out as unconfirmed; settings: Homo sapiens, 48 h, read-out: HUVECq % inhibition
Text: as §1

[3] = test system: colon carcinoma cell line, HCT-116; assay: Cancer cell line proliferation, colon; type: cell-based; parameters: dose or concentration left out as unconfirmed; settings: Homo sapiens
Text: (§2) Cancer Cell Lines. Measurement of the inhibition of tumor cell growth is one measure of anti-cancer activity. Two human cancer cell lines were used to assess the effects of SG angiogenic inhibitors on the proliferation of these cells. The cell lines were MCF-7 breast cancer cells and the colon carcinoma cell line, HCT-116. All cell lines were obtained from Americans Type Tissue Culture (Manassas, Va.) and maintained in their respective media as described by the supplier. The proliferation studies were carried out essentially as described for the proliferating endothelial cells.

[4] = test system: MCF-7 breast cancer cells; assay: Cancer cell line proliferation, breast; type: cell-based; parameters: dose or concentration left out as unconfirmed; settings: Homo sapiens, MCF7
Text: as §2

[5] = target: T1, human estrogen receptor beta (Homo sapiens, UniProt Q92731); assay: ER binding assay, [3H]estradiol competition, ERb; settings: 0.5 nM [3H]estradiol, 4° C. overnight; na = no activity
T1 construct: made in house; host or cells: rabbit reticulocyte lysate, coupled in vitro transcription-translation (Promega TNT kit)
Text: ER Binding Assay. Derivatives which bind and transduce a signal through estrogen receptors would not be considered a positive activity as such an activity could enhance cancer growth as well as induce angiogenesis. Derivatives which either have little or no binding to estrogen receptors (“ER”) would be one desired activity. […] Human cDNAs encoding ERa and ERb were used as templates to express receptor proteins in vitro. The proteins were produced with rabbit reticulocyte lysates as supplied by Promega (TNT kit) that couples transcription and translation in a single reaction. The amount of template used in each reaction was determined empirically and expression was monitored in parallel reactions where [35S]methionine was incorporated into the receptor followed by gel electrophoresis and exposure to film. Binding reactions were carried out in […] final volumes in TEG buffer (10 mM tris, pH 7.5, 1.5 mM EDTA, 10% glycerol). […] The reactions were incubated at 4° C. overnight and bound E2 was quantified by adding […] dextran-coated charcoal. […] The maximum binding was determined by competing bound E2 with only the ethanol vehicle. […] Values for percent inhibition were calculated based on the maximal E2 binding. The data were plotted and Ki values calculated using the Prism Software. […]

[6] = % of maximal b-FGF or VEGF response

T1 sequence (Q92731 whole entry): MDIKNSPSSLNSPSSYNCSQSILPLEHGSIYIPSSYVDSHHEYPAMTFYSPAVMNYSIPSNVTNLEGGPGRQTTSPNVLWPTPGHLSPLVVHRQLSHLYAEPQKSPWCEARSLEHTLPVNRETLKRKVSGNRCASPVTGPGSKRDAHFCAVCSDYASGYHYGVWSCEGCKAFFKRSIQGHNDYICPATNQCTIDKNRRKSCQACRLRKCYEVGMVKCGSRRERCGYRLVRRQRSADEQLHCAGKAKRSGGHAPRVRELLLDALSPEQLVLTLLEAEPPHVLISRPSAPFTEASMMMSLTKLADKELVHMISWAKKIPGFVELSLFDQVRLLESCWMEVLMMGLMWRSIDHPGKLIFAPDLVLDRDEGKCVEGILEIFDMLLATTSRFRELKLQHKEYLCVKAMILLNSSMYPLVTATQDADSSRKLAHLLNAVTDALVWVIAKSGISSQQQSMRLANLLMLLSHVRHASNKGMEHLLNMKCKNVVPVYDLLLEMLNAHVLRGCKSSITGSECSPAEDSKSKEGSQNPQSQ

hERb % binding [5] [%] | Structure (SMILES) | inhibition [1, 6] [%] | inhibition [2] [%] | inhibition [3] [%] | inhibition [4] [%] | inhibition of bFGF-stimulated endothelial cell proliferation ([1]; FIG. 1A, bFGF-stimulated) | inhibition of VEGF-stimulated endothelial cell proliferation ([1]; FIG. 1B, VEGF-stimulated) | inhibition [1] [%]
– | COc1cc2c(cc1OCc1ccccc1)oc(=O)c1cc(C(C)O)ccc12 (stereo not shown) [Palomid 393] | 71 | 21 | 26 | 11 | – | – | –
– | COc1ccc(COc2cc3oc(=O)c4cc(C(C)O)ccc4c3cc2OC)cc1 (stereo not shown) [Palomid 529] | 113 | 31 | 20 | 32 | inhibition | inhibition | 65
– | COc1ccccc1COc1cc2oc(=O)c3cc(C(C)O)ccc3c2cc1OC (stereo not shown) [Palomid 545] | 100 | 22 | 21 | 17 | – | – | 32
– | COc1cc(COc2cc3oc(=O)c4cc(C(C)=O)ccc4c3cc2OC)cc(OC)c1 [Palomid 546] | 100 | 23 | – | 13 | – | – | 18
– | COc1cc(COc2cc3oc(=O)c4cc(C(C)O)ccc4c3cc2OC)cc(OC)c1 (stereo not shown) [Palomid 547] | 106 | 25 | 17 | 35 | – | – | 42
– | CCc1ccc2c(c1)c(=O)oc1cc(OCc3ccc(OC)cc3)c(OC)cc12 [Palomid 550] | 77 | 14 | < 10 | 28 | – | – | –
– | CCc1ccc2c(c1)c(=O)oc1cc(OCc3ccccc3OC)c(OC)cc12 [Palomid 551] | 62 | – | – | 25 | – | – | –
– | COc1cc2c(cc1OCc1ccc(C)cc1)oc(=O)c1cc(C(C)=O)ccc12 [Palomid 559] | 96 | 35 | – | 17 | – | – | 72
– | CCc1ccc2c(c1)c(=O)oc1cc(OCc3ccc(Br)cc3)c(OC)cc12 [Palomid 560] | 53 | – | – | – | – | – | –
37 | COc1cc2c(cc1OCCc1ccccc1)oc(=O)c1cc(C(C)=O)ccc12 [Palomid 568] | 78 | 14 | – | < 10 | – | – | –
– | CCc1ccc2c(c1)c(=O)oc1cc(OCc3ccc(C(=O)OC)cc3)c(OC)cc12 [Palomid 573] | 145 | < 10 | < 10 | – | – | – | –
– | CCc1ccc2c(c1)c(=O)oc1cc(OCc3ccc(C(=O)c4ccccc4)cc3)c(OC)cc12 [Palomid 574] | 74 | 29 | 24 | – | – | – | 13
– | COc1cc2c(cc1OCc1ccc(C)cc1)oc(=O)c1cc(C(C)O)ccc12 (stereo not shown) [Palomid 575] | 104 | 33 | 10 | 31 | – | – | 41
